Data on 25 molecules can be found in patent US20230033285A1, “Protease Inhibitors for Treatment of Coronavirus Infections” (The Scripps Research Institute, priority 2021, published 2023).

As a reminder, the EC50 is the concentration giving half of the maximal effect.

The subject of the experiment is SARS-CoV-2. In words: microbe, parasite or virus in culture. The conditions noted are these: read-out: EC50, μM (Hela). The format is cell-based.
Where [1] appears, read: Severe acute respiratory syndrome coronavirus 2, HeLa-ACE2 cells infected with SARS-CoV-2, 24 h, immunofluorescence of infected cells.
Where [2] appears, read: Severe acute respiratory syndrome coronavirus 2, HeLa-ACE2, 24 h.

Where two headings read alike, the source gives them in different places.

As for `O=C[C@H](C[C@@H]1CCNC1=O)NC(=O)[C@H](CC1CCCCC1)NC(=O)C(=O)Nc1ccccc1F` [Compound 40, N^1-((S)-3-cyclohexyl-1-oxo-1-(((S)-1-oxo-3-((S)-2-oxopyrrolidin-3-yl)propan-2-yl)amino)propan-2-yl)-N^2-(2-fluorophenyl)oxalamide], under setting [1], the EC50 fell in the range of 0.05 to 0.2 µM.
As for `CC(C)C[C@H](NC(=O)C(=O)Nc1ccccc1F)C(=O)N[C@H](C=O)C[C@@H]1CCCNC1=O` [Compound 41, N^1-(2-fluorophenyl)-N^2-((S)-4-methyl-1-oxo-1-(((S)-1-oxo-3-((S)-2-oxopiperidin-3-yl)propan-2-yl)amino)pentan-2-yl)oxalamide], under setting [1], the EC50 lay in the range of 0.05 to 0.2 µM.
Same read-out and setting: next, `CC(C)C[C@H](NC(=O)C(=O)NC1CCCCC1)C(=O)N[C@H](C=O)C[C@@H]1CCNC1=O` [Compound 42, N^1-cyclohexyl-N^2-((S)-4-methyl-1-oxo-1-(((S)-1-oxo-3-((S)-2-oxopyrrolidin-3-yl)propan-2-yl)amino)pentan-2-yl)oxalamide]: 0.5 to 1 µM; `CC(C)C[C@H](NC(=O)C(=O)NC1(C)CC1)C(=O)N[C@H](C=O)C[C@@H]1CCNC1=O` [Compound 43, N^1-((S)-4-methyl-1-oxo-1-(((S)-1-oxo-3-((S)-2-oxopyrrolidin-3-yl)propan-2-yl)amino)pentan-2-yl)-N^2-(1-methylcyclopropyl)oxalamide]: over 1 µM; `O=C[C@H](C[C@@H]1CCNC1=O)NC(=O)[C@@H]1[C@H]2CCC[C@H]2CN1C(=O)C(=O)Nc1ccccc1F` [Compound 44, (1S,3aR,6aS)-2-(2-((2-fluorophenyl)amino)-2-oxoacetyl)-N-((S)-1-oxo-3-((S)-2-oxopyrrolidin-3-yl)propan-2-yl)octahydrocyclopenta[c]pyrrole-1-carboxamide]: over 1 µM.
Still for that read-out and setting: for `O=C[C@H](C[C@@H]1CCCNC1=O)NC(=O)[C@@H]1[C@H]2CCC[C@H]2CN1C(=O)COc1ccc(Cl)cc1Cl` [Compound 45, (1S,3aR,6aS)-2-(2-(2,4-dichlorophenoxy)acetyl)-N-((S)-1-oxo-3-((S)-2-oxopiperidin-3-yl)propan-2-yl)octahydrocyclopenta[c]pyrrole-1-carboxamide] the value was 0.05 to 0.2 µM; for `CC(C)(C)NC(=O)C(=O)N1C[C@H]2[C@@H]([C@H]1C(=O)N[C@H](C=O)C[C@@H]1CCCNC1=O)C2(C)C` [Compound 46, (1R,2S,5S)-3-(2-(tert-butylamino)-2-oxoacetyl)-6,6-dimethyl-N-((S)-1-oxo-3-((S)-2-oxopiperidin-3-yl)propan-2-yl)-3-azabicyclo[3.1.0]hexane-2-carboxamide], over 1 µM; for `CC(C)(NC(=O)C(=O)N1C[C@@H]2CCC[C@@H]2[C@H]1C(=O)N[C@H](C=O)C[C@@H]1CCCNC1=O)C(F)(F)F` [Compound 47, (1S,3aR,6aS)-2-(2-oxo-2-((1,1,1-trifluoro-2-methylpropan-2-yl)amino)acetyl)-N-((S)-1-oxo-3-((S)-2-oxopiperidin-3-yl)propan-2-yl)octahydrocyclopenta[c]pyrrole-1-carboxamide], 0.5 to 1 µM.
In the case of `CC1(C)[C@@H]2[C@@H](C(=O)N[C@H](C=O)C[C@@H]3CCCNC3=O)N(C(=O)C(=O)NC3CCCCC3)C[C@@H]21` [Compound 48, (1R,2S,5S)-3-(2-(cyclohexylamino)-2-oxoacetyl)-6,6-dimethyl-N-((S)-1-oxo-3-((S)-2-oxopiperidin-3-yl)propan-2-yl)-3-azabicyclo[3.1.0]hexane-2-carboxamide], the EC50 under setting [1] was 0.5 to 1 µM.
On to `CC(C)C[C@H](NC(=O)C(=O)Nc1ccccc1F)C(=O)N[C@H](C#N)C[C@@H]1CCNC1=O` [Compound 58], for which the EC50 under setting [1] was 0.5 to 1 µM.
`CC1(C)[C@@H]2[C@@H](C(=O)N[C@H](C#N)C[C@@H]3CCNC3=O)N(C(=O)C(=O)Nc3ccccc3F)C[C@@H]21` [Compound 59, (1R,2S,5S)-N-((S)-1-cyano-2-((S)-2-oxopyrrolidin-3-yl)ethyl)-3-(2-((2-fluorophenyl)amino)-2-oxoacetyl)-6,6-dimethyl-3-azabicyclo[3.1.0]hexane-2-carboxamide]: the EC50 under setting [1] is over 1 µM.
The same measure, in the same setting: for `N#C[C@H](C[C@@H]1CCCNC1=O)NC(=O)[C@@H]1[C@H]2CCC[C@H]2CN1C(=O)C(=O)Nc1ccccc1F` [Compound 60, (1S,3aR,6aS)-N-((S)-1-cyano-2-((S)-2-oxopiperidin-3-yl)ethyl)-2-(2-((2-fluorophenyl)amino)-2-oxoacetyl)octahydrocyclopenta[c] pyrrole-1-carboxamide] the value was 0.5 to 1 µM; for `N#C[C@H](C[C@@H]1CCCNC1=O)NC(=O)[C@@H]1[C@H]2CCC[C@H]2CN1C(=O)COc1ccc(Cl)cc1Cl` [Compound 61, (1S,3aR,6aS)-N-((S)-1-cyano-2-((S)-2-oxopiperidin-3-yl)ethyl)-2-(2-(2,4-dichlorophenoxy)acetyl)octahydrocyclo-penta[c]pyrrole-1-carboxamide], 0.5 to 1 µM.
Same read-out and setting: next, `N#C[C@H](C[C@@H]1CCNC1=O)NC(=O)[C@@H]1[C@H]2CCC[C@H]2CN1C(=O)C(=O)Nc1ccccc1F` [Compound 62, (1S,3aR,6aS)-N-((S)-1-cyano-2-((S)-2-oxopyrrolidin-3-yl)ethyl)-2-(2-((2-fluorophenyl)amino)-2-oxoacetyl)octahydrocyclopenta[c] pyrrole-1-carboxamide]: over 1 µM.
With `CC(C)(C)[C@H](NC(=O)C(F)(F)F)C(=O)N1C[C@H]2[C@@H]([C@H]1C(=O)N[C@H](C#N)C[C@@H]1CCCNC1=O)C2(C)C` [Compound 63, (1R,2S,5S)-N-((S)-1-cyano-2-((S)-2-oxopiperidin-3-yl)ethyl)-3-((S)-3,3-dimethyl-2-(2,2,2-trifluoroacetamido)butanoyl)-6,6-dimethyl-3-azabicyclo[3.1.0]hexane-2-carboxamide], under setting [2], the EC50 is under 0.05 µM.
As for `N#C[C@H](C[C@@H]1CCNC1=O)NC(=O)[C@@H]1CC2(CC2)CN1C(=O)C(=O)Nc1ccccc1F` [Compound 64, (S)-N-((S)-1-cyano-2-((S)-2-oxopyrrolidin-3-yl)ethyl)-5-(2-((2-fluorophenyl)amino)-2-oxoacetyl)-5-azaspiro[2.4]heptane-6-carboxamide], the EC50 under setting [1] was over 1 µM.
Turning to `CC1(C)[C@@H]2[C@@H](C(=O)N[C@H](C#N)C[C@@H]3CCNC3=O)N(C(=O)C(=O)NC3(C(F)(F)F)CC3)C[C@@H]21` [Compound 65, (1R,2S,5S)-N-((S)-1-cyano-2-((S)-2-oxopyrrolidin-3-yl)ethyl)-6,6-dimethyl-3-(2-oxo-2-((1-(trifluoromethyl)cyclopropyl)amino)acetyl)-3-azabicyclo[3.1.0]hexane-2-carboxamide], under setting [1], the EC50 is over 1 µM.
For `CC1(C)[C@@H]2[C@@H](C(=O)N[C@H](C#N)C[C@@H]3CCCNC3=O)N(C(=O)[C@@H](NC(=O)C(F)(F)F)C3CCOCC3)C[C@@H]21` [Compound 68, (1R,2S,5S)-N-((S)-1-cyano-2-((S)-2-oxopiperidin-3-yl)ethyl)-6,6-dimethyl-3-((S)-2-(tetrahydro-2H-pyran-4-yl)-2-(2,2,2-trifluoroacetamido)acetyl)-3-azabicyclo[3.1.0]hexane-2-carboxamide], the EC50 under setting [2] is over 1 µM.
As to `CC(C)(C)C[C@H](NC(=O)C(=O)Nc1ccccc1F)C(=O)N[C@@H](C[C@@H]1CCCNC1=O)C(=O)CO` [Compound 87, N^1-(2-fluorophenyl)-N^2-((S)-1-(((S)-4-hydroxy-3-oxo-1-((S)-2-oxopiperidin-3-yl)butan-2-yl)amino)-4,4-dimethyl-1-oxopentan-2-yl)oxalamide], the EC50 under setting [1] is under 0.05 µM.
Same read-out and setting: for `Cc1ccccc1NC(=O)C(=O)N[C@@H](CC1CC1)C(=O)N[C@@H](C[C@@H]1CCCNC1=O)C(=O)CO` [Compound 88, N^1-((S)-3-cyclopropyl-1-(((S)-4-hydroxy-3-oxo-1-((S)-2-oxopiperidin-3-yl)butan-2-yl)amino)-1-oxopropan-2-yl)-N^2-(o-tolyl)oxalamide] the value was under 0.05 µM; for `CC(C)(C)C[C@H](NC(=O)C(=O)NC(C)(C)C)C(=O)N[C@@H](C[C@@H]1CCCNC1=O)C(=O)CO` [Compound 89, N^1-(tert-butyl)-N^2-((S)-1-(((S)-4-hydroxy-3-oxo-1-((S)-2-oxopiperidin-3-yl)butan-2-yl)amino)-4,4-dimethyl-1-oxopentan-2-yl)oxalamide], 0.05 to 0.2 µM.
The same measure, in the same setting: next, `O=C(Nc1ccccc1F)C(=O)N[C@@H](CC1CC1)C(=O)N[C@@H](C[C@@H]1CCCNC1=O)C(=O)CO` [Compound 90, N^1-((S)-3-cyclopropyl-1-(((S)-4-hydroxy-3-oxo-1-((S)-2-oxopiperidin-3-yl)butan-2-yl)amino)-1-oxopropan-2-yl)-N^2-(2-fluorophenyl)oxalamide]: under 0.05 µM; `Cc1ccccc1NC(=O)C(=O)N1C[C@@H]2CCC[C@@H]2[C@H]1C(=O)N[C@@H](C[C@@H]1CCCNC1=O)C(=O)CO` [Compound 91, (1S,3aR,6aS)-N-((S)-4-hydroxy-3-oxo-1-((S)-2-oxopiperidin-3-yl)butan-2-yl)-2-(2-oxo-2-(o-tolylamino)acetyl)octahydrocyclopenta [c]pyrrole-1-carboxamide]: 0.05 to 0.2 µM.
Take `Cc1ccccc1NC(=O)C(=O)N1C[C@@H]2CCC[C@@H]2[C@H]1C(=O)N[C@H](C[C@@H]1CCCNC1=O)C(=O)CO` [Compound 92, (1S,3aR,6aS)-N-((R)-4-hydroxy-3-oxo-1-((S)-2-oxopiperidin-3-yl)butan-2-yl)-2-(2-oxo-2-(o-tolylamino)acetyl)octahydrocyclopenta [c]pyrrole-1-carboxamide]: the EC50 under setting [1] was over 1 µM.
Still for that read-out and setting: for `O=C(Nc1ccccc1F)C(=O)N1CC2(CC2)C[C@H]1C(=O)N[C@@H](C[C@@H]1CCNC1=O)C(=O)CO` [Compound 93, (S)-5-(2-((2-fluorophenyl)amino)-2-oxoacetyl)-N-((S)-4-hydroxy-3-oxo-1-((S)-2-oxopyrrolidin-3-yl)butan-2-yl)-5-azaspiro[2.4]heptane-6-carboxamide] the value was 0.2 to 0.5 µM.
